From patent US20250221966A1, “RXFP1 AGONISTS” (BRISTOL-MYERS SQUIBB COMPANY, priority 2021, published 2025) come the findings set out here.

In general, EC50 refers to the concentration that produces a half-maximal response.

The target of this assay is T1, human RXFP1 (Homo sapiens, UniProt Q9HBX9).
T1 construct: expressed in transfected cells
T1 sequence (Q9HBX9 1-757): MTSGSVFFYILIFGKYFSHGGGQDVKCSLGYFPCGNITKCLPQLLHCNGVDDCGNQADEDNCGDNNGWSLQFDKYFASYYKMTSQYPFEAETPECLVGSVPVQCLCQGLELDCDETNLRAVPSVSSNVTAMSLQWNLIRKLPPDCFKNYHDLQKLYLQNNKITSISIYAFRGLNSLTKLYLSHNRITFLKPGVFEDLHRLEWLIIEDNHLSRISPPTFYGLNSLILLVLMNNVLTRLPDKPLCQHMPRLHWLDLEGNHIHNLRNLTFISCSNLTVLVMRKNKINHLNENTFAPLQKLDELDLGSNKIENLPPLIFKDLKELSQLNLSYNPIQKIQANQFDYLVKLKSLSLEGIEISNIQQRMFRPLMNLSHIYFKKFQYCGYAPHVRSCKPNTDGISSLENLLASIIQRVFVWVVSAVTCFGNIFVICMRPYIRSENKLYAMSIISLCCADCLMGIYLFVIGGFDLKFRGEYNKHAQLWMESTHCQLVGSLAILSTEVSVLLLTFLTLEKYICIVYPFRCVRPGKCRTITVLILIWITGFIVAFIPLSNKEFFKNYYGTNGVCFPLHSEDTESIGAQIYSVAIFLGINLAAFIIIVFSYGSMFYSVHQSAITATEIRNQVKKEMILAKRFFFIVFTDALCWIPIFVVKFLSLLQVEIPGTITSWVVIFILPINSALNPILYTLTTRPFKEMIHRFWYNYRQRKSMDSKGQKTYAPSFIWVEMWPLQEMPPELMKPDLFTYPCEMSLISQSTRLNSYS
As to the kind of experiment: RXFP1 cAMP assay (hRXFP1 HEK293 cAMP assay, HTRF). The class given is cell-based. To be noted: HEK293 cells stably expressing human RXFP1, 30 min at room temperature, read-out: cAMP hRXFP1 HEK293 Assay EC50. The method, boiled down:
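Intracellular cAMP was read by HTRF, with potency fitted to a 4-parameter logistic curve. Compound exposure (0.010 nM–50 μM final, 2% DMSO) lasted 30 min at room temperature. Cells were hRXFP1-HEK293 at 1500 per well in IBMX-containing (0.5 mM) HEPES-buffered HBSS.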
In general terms: Cyclic AMP is a second messenger, typically raised through Gs and lowered through Gi signalling.
On to `COC(=O)c1cnn2cc(-c3ccc(OC)c(C(=O)N[C@@H]4C5CCC(/C5=C/C(F)(F)F)[C@@H]4C(=O)Nc4ccc(F)c(C(F)(F)F)c4)c3)ccc12` (some centres unmarked) [compound 313], for which the EC50 came to 90 nM. Take `COc1ccc(-c2ccnc3c2ncn3CC(=O)O)cc1C(=O)N[C@@H]1C2CCC(/C2=C/C(F)(F)F)[C@@H]1C(=O)Nc1ccc(F)c(C(F)(F)F)c1` (some centres unmarked) [compound 314]: the EC50 worked out at 5 nM. Turning to `COc1ccc(-c2cccn3c(C(=O)OCc4ccccc4)cnc23)cc1C(=O)N[C@@H]1C2CCC(/C2=C/C(F)(F)F)[C@@H]1C(=O)Nc1ccc(F)c(C(F)(F)F)c1` (some centres unmarked) [compound 315], the EC50 amounted to 60 nM. To `COc1ccc(-c2ccc3c(C(=O)OCc4ccccc4)cnn3c2)cc1C(=O)N[C@@H]1C2CCC(/C2=C/C(F)(F)F)[C@@H]1C(=O)Nc1ccc(F)c(C(F)(F)F)c1` (some centres unmarked) [compound 316] belongs 81 nM. For `COc1ccc(-c2cnc3c(cnn3CC(=O)O)c2)cc1C(=O)N[C@@H]1C2CCC(/C2=C/C(F)(F)F)[C@@H]1C(=O)Nc1ccc(F)c(C(F)(F)F)c1` (some centres unmarked) [compound 317] the value was 31 nM; for `COc1ccc(-c2cnc3nn(CC(=O)O)cc3c2)cc1C(=O)N[C@@H]1C2CCC(/C2=C/C(F)(F)F)[C@@H]1C(=O)Nc1ccc(F)c(C(F)(F)F)c1` (some centres unmarked) [compound 318], 11 nM; for `O=C(NC1CCC1)O[C@@H](c1ccc(F)c(-c2ccc(OCCO)c(C(=O)N[C@@H]3C4CCC(/C4=C/C(F)(F)F)[C@@H]3C(=O)Nc3ccc(F)c(C(F)(F)F)c3)c2)c1)C(F)(F)F` (some centres unmarked) [compound 319], 13 nM. On to `O=C(O)c1ccc(F)c(-c2ccc(OCCO)c(C(=O)N[C@@H]3C4CCC(/C4=C/C(F)(F)F)[C@@H]3C(=O)Nc3ccc(F)c(C(F)(F)F)c3)c2)c1` (some centres unmarked) [compound 321], for which the EC50 was determined as 91 nM.

With `COc1ccc(-c2cc(C(=O)O)ccc2F)cc1C(=O)N[C@@H]1C2CCC(/C2=C/C(=O)N2CC(F)(F)C2)[C@@H]1C(=O)Nc1ccc(F)c(C(F)(F)F)c1` (some centres unmarked) [compound 324], the EC50 worked out at 2240 nM. Consider `COc1ccc(-c2cc(C(=O)O)ccc2F)cc1C(=O)N[C@@H]1C2CCC(/C2=C/c2cn(Cc3ccccc3)nn2)[C@@H]1C(=O)Nc1ccc(F)c(C(F)(F)F)c1` (some centres unmarked) [compound 326], for which the EC50 came to 2270 nM.

With `COc1ccc(-c2cc(C(=O)O)ccc2F)cc1C(=O)N[C@@H]1C2CCC(/C2=C/c2cn(C)nn2)[C@@H]1C(=O)Nc1ccc(F)c(C(F)(F)F)c1` (some centres unmarked) [compound 327], the EC50 stood at 2040 nM. Take `COc1ccc(N2CCC(NC(=O)OC(C)(C)C)C2)cc1C(=O)N[C@@H]1C2CCC(/C2=C/C(F)(F)F)[C@@H]1C(=O)Nc1ccc(F)c(C(F)(F)F)c1` (some centres unmarked) [compound 334]: the EC50 turned out to be 1370 nM. For `CCOC(=O)Cn1cc(-c2ccc(OC)c(C(=O)N[C@@H]3C4CCC(/C4=C/c4ccccc4)[C@@H]3C(=O)Nc3ccc(F)c(C(F)(F)F)c3)c2)cn1` (some centres unmarked) [compound 339], the EC50 came to 67 nM. Regarding `COc1ccc(-c2cnn(CC(=O)O)c2)cc1C(=O)N[C@@H]1C2CCC(/C2=C/c2ccccc2)[C@@H]1C(=O)Nc1ccc(F)c(C(F)(F)F)c1` (some centres unmarked) [compound 340], the EC50 is 62 nM.

For the compound `COc1ccc(-c2ccn(CC(=O)O)n2)cc1C(=O)N[C@@H]1C2CCC(/C2=C/C(F)(F)F)[C@@H]1C(=O)Nc1ccc(F)c(C(F)(F)F)c1` (some centres unmarked) [compound 342], the EC50 came out at 390 nM. On to `CCOC(=O)c1ccnn1-c1ccc(OC)c(C(=O)N[C@@H]2C3CCC(/C3=C/C(F)(F)F)[C@@H]2C(=O)Nc2ccc(F)c(C(F)(F)F)c2)c1` (some centres unmarked) [compound 344], for which the EC50 is 757 nM. Regarding `COc1ccc(-n2nccc2C(=O)O)cc1C(=O)N[C@@H]1C2CCC(/C2=C/C(F)(F)F)[C@@H]1C(=O)Nc1ccc(F)c(C(F)(F)F)c1` (some centres unmarked) [compound 345], the EC50 came out at 1400 nM. For `COc1ccc(-n2cc(C(NC(=O)C3CCOCC3)C(=O)O)cn2)cc1C(=O)N[C@@H]1C2CCC(/C2=C/C(F)(F)F)[C@@H]1C(=O)Nc1ccc(F)c(C(F)(F)F)c1` (some centres unmarked) [compound 347] the value was 62 nM; for `COc1ccc(-c2cc(C(O)C(=O)O)ccc2F)cc1C(=O)NC1C2CCC(/C2=C/C2CC(F)(F)C2)C1C(=O)Nc1ccc(F)c(C(F)(F)F)c1` (centres unmarked) [compound 353], 11 nM. For `COc1ccc(-c2cc(C(O)C(=O)O)ccc2F)cc1C(=O)NC1C2CCC(/C2=C/CCC(C)(C)C)C1C(=O)Nc1ccc(F)c(C(F)(F)F)c1` (centres unmarked) [compound 354] the value was 11 nM; for `COc1ccc(-c2cc(C(O)C(=O)O)ccc2F)cc1C(=O)NC1C2CCC(/C2=C/C2CCCC2)C1C(=O)Nc1ccc(F)c(C(F)(F)F)c1` (centres unmarked) [compound 355], 3 nM; for `COc1ccc(-c2cc(C(O)C(=O)O)ccc2F)cc1C(=O)NC1C2CCC(/C2=C/C2CCC2)C1C(=O)Nc1ccc(F)c(C(F)(F)F)c1` (centres unmarked) [compound 356], 5 nM. Turning to `COc1ccc(-c2cc(C(O)C(=O)O)ccc2F)cc1C(=O)NC1C2CCC(/C2=C/C2CCN(Cc3ccc(Cl)cc3)C2)C1C(=O)Nc1ccc(F)c(C(F)(F)F)c1` (centres unmarked) [compound 357], the EC50 was 211 nM. For `COc1ccc(-c2cc([C@H](O)C(F)(F)F)ccc2F)cc1C(=O)NC1C2CCC(/C2=C/C2CC(F)(F)C2)C1C(=O)Nc1ccc(F)c(C(F)(F)F)c1` (some centres unmarked) [compound 358], the EC50 came to 18 nM. As for `COc1ccc(-c2cc([C@H](OC(=O)NC3CCC3)C(F)(F)F)ccc2F)cc1C(=O)N[C@@H]1C2CCC(/C2=C/C2CC(F)(F)C2)[C@@H]1C(=O)Nc1ccc(F)c(C(F)(F)F)c1` (some centres unmarked) [compound 359], the concentration giving a half-maximal response (EC50) amounted to 2 nM. With `COc1ccc(C2CCCN(C(=O)C(=O)O)C2)cc1C(=O)NC1C2CCC(/C2=C/C(F)(F)F)C1C(=O)Nc1ccc(F)c(C(F)(F)F)c1` (centres unmarked) [compound 368], the EC50 came out at 639 nM. To `COc1ccc(C2CCOCC2)cc1C(=O)NC1C2CCC(/C2=C/C2CCC2)C1C(=O)Nc1ccc(F)c(C(F)(F)F)c1` (centres unmarked) [compound 369] belongs 65 nM; to `COc1ccc(N2CCCS2(=O)=O)cc1C(=O)N[C@@H]1C2CCC(/C2=C/C2CC2)[C@@H]1C(=O)Nc1ccc(F)c(C(F)(F)F)c1` (some centres unmarked) [compound 372], 12 nM; to `COc1ccc(N2CCCCS2(=O)=O)cc1C(=O)N[C@@H]1C2CCC(/C2=C/C2CC2)[C@@H]1C(=O)Nc1ccc(F)c(C(F)(F)F)c1` (some centres unmarked) [compound 373], 9 nM. For the compound `COc1ccc(C2=NOC(CO)C2)cc1C(=O)N[C@@H]1C2CCC(/C2=C/C2CC2)[C@@H]1C(=O)Nc1ccc(F)c(C(F)(F)F)c1` (some centres unmarked) [compound 380], the EC50 was 23 nM. To `COc1ccc(C2=NOC(CO)C2)cc1C(=O)N[C@@H]1C2CCC(/C2=C/C2CC2)[C@@H]1C(=O)Nc1ccc(F)c(C(F)(F)F)c1` (some centres unmarked) [compound 381] belongs 20 nM; to `COc1ccc(C2=NOC(CO)C2)cc1C(=O)N[C@@H]1C2CCC(/C2=C/C2CC2)[C@@H]1C(=O)Nc1ccc(F)c(C(F)(F)F)c1` (some centres unmarked) [compound 382], 118 nM; to `CCCC/C=C1\C2CCC1[C@H](C(=O)Nc1ccc(F)c(C(F)(F)F)c1)[C@@H]2NC(=O)c1cc(C2=NOC(CO)C2)ccc1OC` (some centres unmarked) [compound 383], 127 nM. On to `COc1ccc(C2=NOC(C(=O)OC(C)(C)C)C2)cc1C(=O)N[C@@H]1C2CCC(/C2=C/C2CC2)[C@@H]1C(=O)Nc1ccc(F)c(C(F)(F)F)c1` (some centres unmarked) [compound 386], for which the EC50 is 71 nM.

For the compound `COc1ccc(C2=NOC(C(=O)O)C2)cc1C(=O)N[C@@H]1C2CCC(/C2=C/C2CCC2)[C@@H]1C(=O)Nc1ccc(F)c(C(F)(F)F)c1` (some centres unmarked) [compound 387], the EC50 came out at 11 nM.
